Like-named read-outs stand apart in the source and are kept apart here.
How the values were obtained:
[1] = pKa values of end-capping agents; format: physicochemical; settings: approximated based on the values of similar structures
[2] = values taken from literature references (footnote); cited from earlier work

| pKa [1] | Structure (SMILES) | pKa [2] |
| --- | --- | --- |
| 10.5 | CC(C)(c1ccccc1)c1ccc(O)cc1 [p-cumylphenol] | – |
| – | COc1ccc(O)cc1 [p-methoxyphenol] | 10.4 |

From patent US9897551B2, “Method for accelerated degradation of thermoplastics” (priority 2013, dated 2018)
